Laboratory results published in US20100285146A1, “PEPTIDES AND METHODS FOR THE TREATMENT OF SYSTEMIC LUPUS ERYTHEMATOSUS” (priority 2007, published 2010).
Blank lines part the entries; values can stand above or below the molecule they belong to. No end group written: not given here.

Columns and labels:
[1] = system: C72 murine anti-DNA antibody; assay: Anti-peptide direct binding ELISA with C72; conditions: for C72 Binding: direct binding ELISA, footnote: O.D. after one (1) hour
Method: (§1) Wells were coated with 10 μg/ml of the peptides, blocked with 1% BSA (bovine serum albumin) in PBS (pH 7.4), reacted with appropriately diluted plasma or monoclonal antibodies, incubated with anti-human or anti-mouse immunoglobulin enzyme conjugated to alkaline phosphatase and detected by addition of substrate (Sigma 100 Phosphatase Substrate Tablets) and color development using an Organon Teknika Microwell System spectrometer at wavelength of 405 nm.
(§2) The interaction of the C72 murine anti-DNA antibody with laminin peptides was analyzed by ELISA as described above. The C72 conditioned medium was diluted in PBS in various dilutions.
(§3) The peptides of the present invention were tested for their ability to bind directly with C72 murine anti-DNA antibodies and B3 human anti-DNA antibodies according to the method described hereinabove.

[2] = system: B3 human anti-DNA antibodies; assay: Anti-peptide direct binding ELISA with B3; conditions: for B3 Binding: direct binding ELISA, footnote: O.D. after two (2) hours
Method: as §1
(§4) The human monoclonal anti-DNA antibodies DIL 6 and B3 were derived from lupus patients by the hybridoma technique. […] In FIGS. 3 and 4, the peptides are referred to as denoted above or as follows; AS30 is R27, AS19 is R35, AS35 is R26, AS17 is R28 and AS6 is R18.
as §3

[3] = system: human monoclonal anti-DNA antibody DIL 6; assay: Anti-peptide direct binding ELISA with DIL6
Method: as §1, §4

[4] = system: anti-HEL Hy5 control murine antibody; assay: Direct binding ELISA with control murine antibody; conditions: data not shown
Method: as §1, §2

[5] = system: C72 murine anti-DNA antibody; assay: Competitive inhibition of the binding of C72 to 5200; conditions: after incubation of C72 with the inhibiting agent
Method: The binding of C72 to 5200 was tested before and after incubation with 5200, R38, R18, Heparin, DNA and DNase. […] The percent inhibition is the percent reduction of the O.D. after incubation with the inhibiting agent.

C72 anti-DNA antibody = assay: Competitive inhibition of C72 binding to R38 (5100); design: species or system murine; conditions: concentration of competitive inhibitor giving 50% inhibition, ELISA
Source text: A competitive inhibition study compared how each of the peptides competes with R38 (5100) for binding to the C72 anti-DNA antibody. Conducted according to the methods described hereinabove, the results of the study are disclosed in Table 4 below and are further elucidated by reference to FIG. 10.

[6] = system: MRL/1pr/1pr urine antibodies; assay: Binding of murine urinary immunoglobulins, MRL/1pr/1pr urine; design: species or system mice
Method: as §1
(§5) Thus, pooled urine from at least 5 mice (either MRL/1pr/1pr or control mice, e.g. BALB/c) was added to wells coated with R38′ (5200), R18 or DNA as described above and bound 5200 assayed by ELISA.
(§6) Each group is comprised of pooled urine.

[7] = system: BALB/c urinary immunoglobulins; assay: Binding of murine urinary immunoglobulins, BALB/c control urine; conditions: pooled urine of BALB/c control mice
Method: as §1, §5, §6

MRL/1pr/1pr mice = assay: Clinical course of murine SLE (survival, renal histology); assay type: in vivo; conditions: for renal histology by light microscopy: two mice sacrificed after 5 months, controls severe diffuse proliferative glomerulonephritis
Method: To test whether R38 peptides can affect the course of SLE we have tested their effect on MRL/1pr/1pr mice disease. 60 μg of 5200 (R38′ alone or in peptide combinations, 30 μg of each) in 0.1 ml PBS, was injected i.p. to 6 week old female MRL/1pr/1pr mice once a week for 16 weeks and the mice were evaluated for survival (FIG. 8), and for renal histology.
50 μg of 5100 (R38) or 5300 (human R38) in 0.1 ml PBS, was injected i.p. to 6 week old MRL/1pr/1pr mice three times a week and the mice were evaluated for survival (FIG. 9), and for renal histology. Control mice received 0.1 ml phosphate buffer solution. Each test and control group contained 12-15 mice.
The survival of MRL/1pr/1pr mice treated with 5100, 5200 or 5300 was compared to that of PBS treated mice. […] In FIGS. 8 and 9 the time in days shown on the x axis relates to the age of the mice. Two mice in each group were sacrificed after 5 months and their kidneys evaluated by light microscopy.

[8] = system: urine antibodies of lupus patients; assay: Urine anti-peptide antibody ELISA in patients; assay type: binding, human
[9] = molecular target: 5101 peptide (Res. 1-16 of 5100) (mouse); assay: direct binding ELISA, peptide-coated wells, read after two hours
[10] = molecular target: 5102 peptide (Res. 6-17 of 5100) (mouse); assay: as above
[11] = molecular target: 5200 peptide (R38′), mouse R38 analog; assay: as above
Sequence of 5200 peptide (R38′), mouse R38 analog (peptide, as listed by the source): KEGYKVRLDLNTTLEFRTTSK

[12] = molecular target: 5300 peptide, human R38 (human); assay: as above
Sequence of 5300 peptide, human R38 (human) (peptide, as listed by the source): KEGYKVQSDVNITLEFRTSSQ

[13] = molecular target: R38 peptide (5100), mouse R38 (mouse); assay: as above
[14] = system: urine antibodies of lupus patients; assay: Urine anti-peptide antibody ELISA in patients; assay type: binding, human; conditions: Example 5
Method: as §1
Activity of the disease was evaluated also by accepted clinical and serological parameters (Lockshin M. D. et al. Am. J. Med (1984) 77 893-898) and their correlation with anti-R38 levels was compared. 103 urine samples of 37 SLE patients were tested for anti-R38 activity by ELISA as described above. 23 of the samples were from patients without renal disease and 80 samples from patients with renal disease. A further 12 samples from patients with renal disease not related to SLE were also included.

C72 antibody = assay: Affinity absorption on R38 column, C72 sample; assay type: binding, mouse
Method: (§7) The R38 peptide was dissolved in the coupling buffer (0.2M NaHCO3, 0.5M NaCl, pH 8.3) in a concentration of 1 mg/ml in 5 ml coupling buffer. A 5 ml N-hydroxysuccinimide (NHS)-activated Sepharose™ High Performance Column (Pharmacia 17-0717-01) is used. The isopropanol in the column was washed out from the column with 30 ml of cold (4° C.) 1 mM HCl and 5 ml of the peptide solution was then injected onto the column with a syringe (2.5 ml/minute). The column was sealed and stood for 30 minutes at room temperature. The column was then washed with 30 ml Buffer A (0.5 M ethanolamine, 0.5 M NaCl, pH 8.3) and 30 ml Buffer B (0.5 M acetate, 0.5 M NaCl, pH 4) consecutively three times, and then with neutral pH buffer (0.05 M Na2HPO4 and 0.1% NaN3).
The column was washed with 15 ml PBS (phosphate buffered saline), followed by 15 ml elution buffer (0.1 M glycine HCl) and then 50 ml PBS. The C72 antibody or the patients' plasma samples were filtered through a 0.45 microm filter. The samples were applied onto the column by a fitted syringe at a rate of 2.5 ml/min. The column was then washed with 5 ml PBS and the flow-through was applied to the column again. […]
(§8) In the instant example, the mouse C72 and the SLE patients' plasma were applied to the R38 column. Their anti-R38 binding was evaluated by ELISA in the original samples and in the flow-through of the column.

[15] = system: anti-R38 antibodies in human plasma; assay: Affinity absorption on R38 column, human plasma samples; assay type: binding; conditions: for Binding to R38 (O.D.), Original sample: before column; for Binding to R38 (O.D.), After immunoabsorption: flow-through of R38 column
Method: as §7
The column was washed with 15 ml PBS (phosphate buffered saline), followed by 15 ml elution buffer (0.1 M glycine HCl) and then 50 ml PBS. The C72 antibody or the patients' plasma samples were filtered through a 0.45 microm filter. The samples were applied onto the column by a fitted syringe at a rate of 2.5 ml/min. The column was then washed with 5 ml PBS and the flow-through was applied to the column again. The binding of the samples (original and flow-through) to R38 was tested by the anti-R38 ELISA test.
as §8

Molecule: CC(C)C[C@H](NC(=O)[C@H](CC(=O)O)NC(=O)[C@H](CC(C)C)NC(=O)[C@H](CCCNC(=N)N)NC(=O)[C@@H](NC(=O)[C@H](CCCCN)NC(=O)[C@H](Cc1ccc(O)cc1)NC(=O)CNC(=O)[C@H](CCC(=O)O)NC(=O)[C@@H](N)CCCCN)C(C)C)C(=O)N[C@@H](CC(N)=O)C(=O)N[C@H](C(=O)N[C@H](C(=O)N[C@@H](CC(C)C)C(=O)N[C@@H](CCC(=O)O)C(=O)N[C@@H](Cc1ccccc1)C(=O)N[C@@H](CCCNC(=N)N)C(=O)N[C@H](C(=O)N[C@H](C(=O)N[C@@H](CO)C(=O)N[C@@H](CCCCN)C(=O)O)[C@@H](C)O)[C@@H](C)O)[C@@H](C)O)[C@@H](C)O (stereo in doubt) [Peptide 5200]
binding of C72 murine anti-DNA antibody to laminin peptides (FIG. 1) ([1]; ELISA, C72 conditioned medium in various dilutions): binding
C72 Binding [1]: 1.8 O.D.
binding of B3 to laminin peptides (FIGS. 3 and 4) [2]: bind
B3 Binding [2]: 0.25 O.D.
binding of DIL 6 to laminin peptides (FIGS. 3 and 4) [3]: bind
binding of control antibody anti-HEL Hy5 [4]: did not bind
inhibition of the binding of C72 to 5200 (FIG. 2) [5]: inhibition
50% Inhibition of C72 binding to mouse R38 (5100) (C72 anti-DNA antibody): 10 µg/mL
interaction of MRL/1pr/1pr urine antibodies with peptide ([6]; direct binding ELISA): specific binding
Binding of murine urinary immunoglobulins to antigen ([6]; pooled urine of MRL/1pr/1pr mice): 0.26(*) O.D. at 405 nm
Binding of murine urinary immunoglobulins to antigen [7]: U.D.
survival versus PBS control mice (FIG. 8) (MRL/1pr/1pr mice; 60 μg i.p. once a week for 16 weeks, 6 week old female mice): significantly higher
renal histology by light microscopy (MRL/1pr/1pr mice; 60 μg i.p. once a week): mild proliferative changes with no crescents and no sclerosis
Urine anti-5200 O.D. (Mean + S.E.) ([8]; Example 6, renal disease absent, 46 samples): 0.05 ± 0.005 O.D.
Urine anti-5200 O.D. (Mean + S.E.) ([8]; Example 6, renal disease present, 132 samples, p < 0.001): 0.335 ± 0.035 O.D.
Urine anti-5200 O.D. (Mean + S.E.) ([8]; Example 8, renal disease absent, 6 samples): 0.052 ± 0.03 O.D.
Urine anti-5200 O.D. (Mean + S.E.) ([8]; Example 8, renal disease present, 46 samples): 0.431 ± 0.09 O.D.

O.D. in a direct binding ELISA [9]: 0.1 O.D.
O.D. in a direct binding ELISA [10]: 0.02 O.D.
O.D. in a direct binding ELISA [11]: 0.25 O.D.
O.D. in a direct binding ELISA [12]: 0.03 O.D.
O.D. in a direct binding ELISA [13]: 0.9 O.D.
Molecule: B3 human monoclonal anti-DNA antibody

Molecule: KEGYKVRLDLNITLEFRTTSK [Peptide 5100]
C72 Binding [1]: 2.57 O.D.
B3 Binding [2]: 0.9 O.D.
inhibition of the binding of C72 to 5200 (FIG. 2) [5]: inhibition
50% Inhibition of C72 binding to mouse R38 (5100) (C72 anti-DNA antibody): 10 µg/mL
Urine anti-R38 O.D. (Mean + S.E.) ([14]; SLE absent, renal disease present, 12 samples): 0.07 ± 0.01 O.D.
Urine anti-R38 O.D. (Mean + S.E.) ([14]; SLE present, renal disease absent, 23 samples): 0.035 ± 0.003 O.D.
Urine anti-R38 O.D. (Mean + S.E.) ([14]; SLE present, renal disease present, 80 samples, p < 0.001): 0.229 ± 0.03 O.D.
survival versus PBS control mice (FIG. 9) (MRL/1pr/1pr mice; 50 μg i.p. three times a week, 6 week old mice): significantly higher
renal histology by light microscopy (MRL/1pr/1pr mice; 50 μg i.p. three times a week): mild proliferative changes with no crescents and no sclerosis
Binding to R38 (O.D.), Original sample (C72 antibody; sample C72, before column): 1.96 O.D.
Binding to R38 (O.D.), After immunoabsorption (C72 antibody; sample C72, flow-through of R38 column): 0.02 O.D.
Binding to R38 (O.D.), Original sample ([15]; Healthy donor's plasma): 0.26 O.D.
Binding to R38 (O.D.), After immunoabsorption ([15]; Healthy donor's plasma): 0.06 O.D.
Binding to R38 (O.D.), Original sample ([15]; SLE patient 1 plasma): 1.5 O.D.
Binding to R38 (O.D.), After immunoabsorption ([15]; SLE patient 1 plasma): 0.6 O.D.
Binding to R38 (O.D.), Original sample ([15]; SLE patient 2 plasma): 2.3 O.D.
Binding to R38 (O.D.), After immunoabsorption ([15]; SLE patient 2 plasma): 1.6 O.D.
Urine anti-5100 O.D. (Mean + S.E.) ([8]; Example 7, renal disease absent, 6 samples): 0.058 ± 0.006 O.D.
Urine anti-5100 O.D. (Mean + S.E.) ([8]; Example 7, renal disease present, 39 samples, p < 0.03): 0.376 ± 0.05 O.D.
